{"source": "paper PMC9697930", "about": "(International Journal of Molecular Sciences, 2022)", "key": {"MTT proliferation assay": {"test": "MTT proliferation assay", "assay_type": "cell-based, Canine", "details": "dog, MDCKII-ABCB1 cells, comparative MTT, read-out: antiproliferative IC50", "method": "(§1) The viability MTT assay was employed in several experimental sets, including induction studies, comparative viability assays, and drug combinations. First, 1.3 × 10^4 (MDCKII sublines), 1.2 × 10^4 (A431 sublines), 1.5 × 10^4 (MCF-7), and 1.0 × 10^4 (primary NSCLC explants) cells were seeded in 96-well plates. After seeding, cells were left to refresh in incubator for 24 h. Secondly, the medium was removed, and the serial dilutions of the drugs or drug combinations were added to the cells. Next to these variants, a medium with 40% DMSO and vehicle-containing media were tested as nonviable and unaffected viability controls, respectively. After an additional 48 h of incubation, the cells were washed with 1 × PBS and then treated with 1 mg/mL MTT solution in Opti-MEM. Subsequently, cells were incubated for 60 min under standard conditions. After MTT treatment, generated formazan crystals were solubilized with DMSO for 10 min. Wavelengths of 570 nm (formazan) and 690 nm (background) were used for absorbance measurements using a microplate reader Infinite 200 Pro NanoQuant (Tecan, Männedorf, Switzerland)."}, "A431-ABCB1": {"system": "A431-ABCB1", "test": "MTT proliferation assay", "assay_type": "cell-based", "details": "Homo sapiens, comparative MTT, 48 h, read-out: antiproliferative IC50", "method": "as §1"}, "MDCKII-par cells": {"system": "MDCKII-par cells", "test": "Accumulation assay in control parent cells", "assay_type": "cell-based, Canine", "method": "The conduction of accumulation assays followed the slightly changed protocol described previously. In the study, MDCKII-par, MDCKII-ABCB1, MDCKII-ABCC1, MDCKII-ABCG2, and primary explants were seeded into 12-well plates in variant densities, 22.0 × 10^4, 15.0 × 10^4, 25.0 × 10^4, 22.0 × 10^4, and 15.0 × 10^4 cells/well, respectively. After 24 h incubation, two washing steps with 1 × PBS were applied. […] The cells were then incubated under standard conditions for 30 min. Next steps included placing the plates on ice, washing the cells with ice-cold 1 × PBS two-times, and detaching the cells with the ice-cold 10 × trypsin without phenol red. Following trypsinization, cells were resuspended in 1 × PBS containing 2% FBS. Subsequently, cell suspensions were transferred into the test tubes and kept on ice. The fluorescence in cells was measured immediately after the collection of their suspensions using flow cytometer Sony SA3800 Spectral Cell Analyzer (Sony Biotechnology, San Jose, CA, USA). SA3800 software (Sony Biotechnology, San Jose, CA, USA) was used to evaluate the data."}, "ABCB1": {"molecular_target": "ABCB1 (Homo sapiens, UniProt P08183)", "sequence (P08183 whole entry)": "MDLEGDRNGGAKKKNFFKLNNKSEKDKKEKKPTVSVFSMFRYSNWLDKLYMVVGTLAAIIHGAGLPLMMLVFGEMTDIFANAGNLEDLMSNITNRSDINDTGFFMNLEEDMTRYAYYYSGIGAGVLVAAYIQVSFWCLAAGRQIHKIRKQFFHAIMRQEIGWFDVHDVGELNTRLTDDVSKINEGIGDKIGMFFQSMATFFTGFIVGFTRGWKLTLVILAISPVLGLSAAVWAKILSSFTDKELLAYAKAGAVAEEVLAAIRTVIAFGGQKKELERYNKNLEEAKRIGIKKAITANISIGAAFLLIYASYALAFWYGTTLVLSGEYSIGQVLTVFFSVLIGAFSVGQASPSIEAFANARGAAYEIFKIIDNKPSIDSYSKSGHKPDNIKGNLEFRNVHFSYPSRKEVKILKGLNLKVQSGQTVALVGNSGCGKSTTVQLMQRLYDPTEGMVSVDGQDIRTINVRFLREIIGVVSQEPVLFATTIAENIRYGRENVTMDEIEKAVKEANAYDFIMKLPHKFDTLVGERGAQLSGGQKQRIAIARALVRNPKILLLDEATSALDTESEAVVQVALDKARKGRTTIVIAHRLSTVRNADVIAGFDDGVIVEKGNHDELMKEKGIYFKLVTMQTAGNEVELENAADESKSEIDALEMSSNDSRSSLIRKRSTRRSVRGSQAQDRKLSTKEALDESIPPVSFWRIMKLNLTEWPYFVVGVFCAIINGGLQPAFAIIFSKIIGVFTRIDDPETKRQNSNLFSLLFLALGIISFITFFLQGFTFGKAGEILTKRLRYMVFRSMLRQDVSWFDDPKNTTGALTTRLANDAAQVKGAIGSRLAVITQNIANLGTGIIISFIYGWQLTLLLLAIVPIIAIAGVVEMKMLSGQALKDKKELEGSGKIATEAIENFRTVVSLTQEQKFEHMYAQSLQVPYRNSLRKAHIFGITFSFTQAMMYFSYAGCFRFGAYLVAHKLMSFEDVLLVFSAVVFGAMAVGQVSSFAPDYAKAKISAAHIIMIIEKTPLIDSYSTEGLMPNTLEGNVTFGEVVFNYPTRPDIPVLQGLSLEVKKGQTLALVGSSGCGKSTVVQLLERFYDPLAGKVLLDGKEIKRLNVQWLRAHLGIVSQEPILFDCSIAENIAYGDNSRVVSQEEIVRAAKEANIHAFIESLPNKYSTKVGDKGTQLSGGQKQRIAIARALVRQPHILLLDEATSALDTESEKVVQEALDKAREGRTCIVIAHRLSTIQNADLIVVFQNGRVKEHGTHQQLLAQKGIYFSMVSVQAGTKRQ", "parameters": "expressed in transfected cells; host or cells: MDCKII (canine kidney) subline MDCKII-ABCB1, gift of Dr. Alfred Schinkel", "details": "Abcb1-knockout mice, MDCKII-ABCB1 cells; cited from earlier work"}, "MCF-7 cells": {"system": "MCF-7 cells", "test": "MTT viability experiment", "assay_type": "cell-based, Human", "details": "0.5 µM, 48 h", "method": "as §1"}, "[1]": {"system": "patient-derived NSCLC explants", "test": "Accumulation of mitoxantrone and daunorubicin in ex vivo explants", "assay_type": "cell-based, human", "details": "5 µM talazoparib, 2 µM Ko143, 25 µM MK571", "from_the_text": "NSCLC specimens from lung lobectomies were donated by patients at the Department of Cardiac Surgery, University Hospital Hradec Kralove. All the patients signed the informed consent; its formulation was approved by the University Hospital Ethics Committee (study no. 202002 […]). The NSCLC malignant tissues were excised from lung lobes by the pathologist immediately after the surgery. Then, NSCLC primary explants were generated according to the established protocols. First, the tumor tissues were cut into small pieces by scalpel. Then, the cells were released from the tissue by the 0.1% collagenase in 1 × MEM at 37 °C for 30 min. Subsequently, 1% BSA in MEM (v/v) was added, and cells were filtered through a 40 μm pore-sized cell strainer. The resulting solution was centrifuged at 200 × g for 5 min and the pellet was resuspended in 1% BSA in MEM. The centrifugation (100 × g for 10 min) in Ficoll Paque Plus was used for removing biological impurities such as cell debris, etc. Next, the NSCLC cells were collected and transferred into c-based media. The additional centrifugation (200 × g for 5 min) was applied to remove the traces of Ficoll solution. […] The fluorescence in cells was measured immediately after the collection of their suspensions using flow cytometer Sony SA3800 Spectral Cell Analyzer (Sony Biotechnology, San Jose, CA, USA). […]"}}}
{"smiles": "Cn1ncnc1[C@H]1c2n[nH]c(=O)c3cc(F)cc(c23)N[C@@H]1c1ccc(F)cc1", "note": "[talazoparib, Talazoparib]", "values": [{"measurement": "IC50 at 48 h", "setting": "MTT proliferation assay", "value": 67.5, "unit": "µM"}, {"measurement": "IC50", "setting": "A431-ABCB1", "value": 92.7, "unit": "µM"}, {"measurement": "effect on accumulations of probe substrate drugs", "setting": "MDCKII-par cells", "value": "did not exhibit any significant effects"}, {"measurement": "ABCB1 substrate status", "setting": "ABCB1", "value": "substrate of ABCB1"}, {"measurement": "toxicity in MTT viability experiment", "setting": "MCF-7 cells", "value": "negligibly toxic"}, {"measurement": "effect on cytostatic efflux / accumulation", "setting": "[1]; primary cultures with high expression of ABCG2/ABCC1", "value": "significantly inhibited cytostatic efflux"}, {"measurement": "effect on cytostatic efflux / accumulation", "setting": "[1]; primary cultures with low expression of ABCG2/ABCC1", "value": "insignificant accumulation changes"}]}
